Data published in paper PMC4234427 (Journal of Medicinal Chemistry, 2014).

What was measured:
h-CB2R = h-CB2R (Homo sapiens, UniProt P34972); details: classification from β-arrestin 2 (and cAMP) assays
hCB2R [1] = biological target: T1, hCB2R (Homo sapiens, UniProt P34972); test: forskolin-stimulated cAMP assay; assay type: cell-based; details: for cAMP (CB2R) EC50/IC50 (nM): EC50: agonist mode, inhibition of forskolin (10 μM) mediated cAMP production
hCB2R [2] = biological target: T1, hCB2R; test: CB2R competitive radioligand binding assay; details: selectivity ratio
[3] = solubility under the cAMP assay test conditions; assay type: physicochemical; details: functional cAMP assay conditions

T1 sequence (P34972 whole entry): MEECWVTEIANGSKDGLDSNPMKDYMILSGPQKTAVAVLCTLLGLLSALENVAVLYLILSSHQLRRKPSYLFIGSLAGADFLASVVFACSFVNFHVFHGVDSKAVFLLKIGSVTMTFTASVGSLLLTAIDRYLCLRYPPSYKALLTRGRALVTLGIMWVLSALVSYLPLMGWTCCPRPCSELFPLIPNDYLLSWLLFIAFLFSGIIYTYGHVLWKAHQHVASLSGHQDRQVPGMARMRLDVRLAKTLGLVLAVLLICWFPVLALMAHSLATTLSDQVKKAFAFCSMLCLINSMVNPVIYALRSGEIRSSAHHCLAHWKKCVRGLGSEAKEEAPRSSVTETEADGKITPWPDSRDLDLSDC
h-CB2R, sequence (P34972 whole entry): as above

| SMILES | functional activity at CB2R (h-CB2R) | Ki(CB1)/Ki(CB2) (hCB2R [2]) | further results |
| --- | --- | --- | --- |
| CC1CCC(NC(=O)c2cc3cccnc3n(CCN3CCOCC3)c2=O)CC1 (centres unmarked) [A1] | agonists |  | cAMP (CB2R) EC50/IC50 (nM): EC50 (hCB2R [1]): 28.0 nM |
| CC1CCC(NC(=O)c2cc3cccnc3n(Cc3ccc(F)cc3)c2=O)CC1 (centres unmarked) [A2] | agonists |  | cAMP (CB2R) EC50/IC50 (nM): EC50 (hCB2R [1]): 29.6 nM |
| CC1CCC(NC(=O)c2cc3cccnc3n(CCO)c2=O)CC1 (centres unmarked) [Compound 3, 1-(2-Hydroxyethyl)-N-(4-methylcyclohexyl)-2-oxo-1,2-dihydro-1,8-naphthyridine-3-carboxamide] |  | >5 |  |
| CC1CCC(NC(=O)c2cc3cccnc3n(CCCO)c2=O)CC1 (centres unmarked) [Compound 4, 1-(3-Hydroxypropyl)-N-(4-methylcyclohexyl)-2-oxo-1,2-dihydro-1,8-naphthyridine-3-carboxamide] |  | >77 |  |
| CC1CCC(NC(=O)c2cc3cccnc3n(CCCCO)c2=O)CC1 (centres unmarked) [Compound 5, 1-(4-Hydroxybutyl)-N-(4-methylcyclohexyl)-2-oxo-1,2-dihydro-1,8-naphthyridine-3-carboxamide] | agonists | >187 | solubility under the test conditions [3]: insoluble |
| CC1CCC(NC(=O)c2cc3cccnc3n(CCCCCO)c2=O)CC1 (centres unmarked) [Compound 6, 1-(5-Hydroxypentyl)-N-(4-methylcyclohexyl)-2-oxo-1,2-dihydro-1,8-naphthyridine-3-carboxamide] |  | >2778 |  |
| CC1CCC(NC(=O)c2cc3cccnc3n(CCCCCCO)c2=O)CC1 (centres unmarked) [Compound 7, 1-(6-Hydroxyhexyl)-N-(4-methylcyclohexyl)-2-oxo-1,2-dihydro-1,8-naphthyridine-3-carboxamide] |  | >554 |  |
| CCOC(=O)CCn1c(=O)c(C(=O)NC2CCC(C)CC2)cc2cccnc21 (centres unmarked) [Compound 8, Ethyl 3-(3-(4-Methylcyclohexylcarbamoyl)-2-oxo-1,8-naphthyridin-1(2H)-yl)propanoate] |  | >57 |  |
| CCOC(=O)CCCn1c(=O)c(C(=O)NC2CCC(C)CC2)cc2cccnc21 (centres unmarked) [Compound 9, Ethyl 4-(3-(4-Methylcyclohexylcarbamoyl)-2-oxo-1,8-naphthyridin-1(2H)-yl)butanoate] |  | >160 |  |
| COC(=O)CCCCn1c(=O)c(C(=O)NC2CCC(C)CC2)cc2cccnc21 (centres unmarked) [Compound 10, Methyl 5-(3-(4-Methylcyclohexylcarbamoyl)-2-oxo-1,8-naphthyridin-1(2H)-yl)pentanoate] |  | >369 |  |
| CC1CCC(NC(=O)c2cc3cccnc3n(CCC(=O)O)c2=O)CC1 (centres unmarked) [Compound 11, 3-(3-(4-Methylcyclohexylcarbamoyl)-2-oxo-1,8-naphthyridin-1(2H)-yl)propanoic Acid] |  | >7 |  |
| CC1CCC(NC(=O)c2cc3cccnc3n(CCCC(=O)O)c2=O)CC1 (centres unmarked) [Compound 12, 4-(3-(4-Methylcyclohexylcarbamoyl)-2-oxo-1,8-naphthyridin-1(2H)-yl)butanoic Acid] |  | >4 |  |
| CC1CCC(NC(=O)c2cc3cccnc3n(CCCCC(=O)O)c2=O)CC1 (centres unmarked) [Compound 13, 5-(3-(4-Methylcyclohexylcarbamoyl)-2-oxo-1,8-naphthyridin-1(2H)-yl)pentanoic Acid] |  | >7 |  |
| CC1CCC(NC(=O)c2cc3cccnc3n(CCCCF)c2=O)CC1 (centres unmarked) [Compound 14, 1-(4-Fluorobutyl)-1,2-dihydro-N-(4-methylcyclohexyl)-2-oxo-1,8-naphthyridine-3-carboxamide] | agonists |  | cAMP (CB2R) EC50/IC50 (nM): EC50 (hCB2R [1]): 20.6 nM |
| CC1CCC(NC(=O)c2cc3cc(Br)cnc3n(Cc3ccc(F)cc3)c2=O)CC1 (centres unmarked) [Compound 17, 6-Bromo-1-(4-fluorobenzyl)-N-(4-methylcyclohexyl)-2-oxo-1,2-dihydro-1,8-naphthyridine-3-carboxamide] | inverse agonists as well as antagonists |  | solubility under the test conditions [3]: insoluble |
| CC1CCC(NC(=O)c2cc3cc(Br)cnc3n(CCN3CCOCC3)c2=O)CC1 (centres unmarked) [Compound 18, 6-Bromo-N-(4-methylcyclohexyl)-1-(2-morpholinoethyl)-2-oxo-1,2-dihydro-1,8-naphthyridine-3-carboxamide] | inverse agonists as well as antagonists |  | cAMP (CB2R) EC50/IC50 (nM): IC50 (hCB2R [1]; antagonist mode, inhibition of response to WIN-55,212-2 (30 nM) with forskolin): 59.6 nM |
| CC1CCC(NC(=O)c2cc3cc(-c4ccc(F)cc4)cnc3n(Cc3ccc(F)cc3)c2=O)CC1 (centres unmarked) [Compound 21, 1-(4-Fluorobenzyl)-6-(4-fluorophenyl)-N-(4-methyl-cyclohexyl)-2-oxo-1,2-dihydro-1,8-naphthyridine-3-carboxamide] |  | >4608 |  |
| C[C@H]1CC[C@@H](NC(=O)c2cc3cc(-c4ccco4)cnc3n(Cc3ccc(F)cc3)c2=O)CC1 [Compound 22-cis, cis-1-(4-Fluorobenzyl)-6-(furan-2-yl)-N-(4-methylcyclohexyl)-2-oxo-1,2-dihydro-1,8-naphthyridine-3-carboxamide] |  | 15 022 |  |
| C[C@H]1CC[C@H](NC(=O)c2cc3cc(-c4ccco4)cnc3n(Cc3ccc(F)cc3)c2=O)CC1 [Compound 22-trans, trans-1-(4-Fluorobenzyl)-6-(furan-2-yl)-N-(4-methylcyclohexyl)-2-oxo-1,2-dihydro-1,8-naphthyridine-3-carboxamide] |  | >106 |  |
| COc1ccc(-c2cnc3c(c2)cc(C(=O)NC2CCC(C)CC2)c(=O)n3CCN2CCOCC2)cc1 (centres unmarked) [Compound 23, 6-(4-Methoxyphenyl)-N-(4-methylcyclohexyl)-1-(2-morpholinoethyl)-2-oxo-1,2-dihydro-1,8-naphthyridine-3-carboxamide] | inverse agonists as well as antagonists | >6802 | solubility under the test conditions [3]: insoluble |
